Consider 17 compounds from patent US6900244B2, “Anilino liver X-receptor modulators” (Pharmacia Corporation, priority 2002, dated 2005).

What is called melting point is the temperature of the solid-liquid transition.

For the compound `CCOC(=O)CC(C)Nc1ccc(C(O)(C(F)(F)F)C(F)(F)F)cc1` (centres unmarked) [Example 1, Ethyl 3-({4-[2,2,2-trifluoro-1-hydroxy-1-(trifluoromethyl)ethyl]phenyl}amino)-butanoate], the melting point is 103 °C.

As to `CCOC(=O)C(C)(C)Nc1ccc(C(O)(C(F)(F)F)C(F)(F)F)cc1` [Example 3, Ethyl 2-methyl-N-{4-[2,2,2-trifluoro-1-hydroxy-1-(trifluoromethyl)ethyl]phenyl}-alaninate], the melting point amounted to 93 °C.

`CCOC(=O)CN(CC(F)(F)F)c1ccc(C(O)(C(F)(F)F)C(F)(F)F)cc1` [Example 5, Ethyl N-(2,2,2-trifluoroethyl)-N-{4-[2,2,2-trifluoro-1-hydroxy-1-(trifluoromethyl)-ethyl]phenyl}glycinate] displayed a melting point of 67 °C.

`CCOC(=O)CCN(C)c1ccc(C(O)(C(F)(F)F)C(F)(F)F)cc1` [Example 14, Ethyl N-methyl-N-{4-[2,2,2-trifluoro-1-hydroxy-1-(trifluoromethyl)ethyl]phenyl}-beta-alaninate] yielded a melting point of 77 °C.

As to `CCOC(=O)CN(Cc1ccccc1)c1ccc(C(O)(C(F)(F)F)C(F)(F)F)cc1` [Example 19, Ethyl N-benzyl-N-{4-[2,2,2-trifluoro-1-hydroxy-1-(trifluoromethyl)ethyl]-phenyl}glycinate], the melting point worked out at 116 °C.

Consider `CCOC(=O)CN(Cc1ccccc1Cl)c1ccc(C(O)(C(F)(F)F)C(F)(F)F)cc1` [Example 21, Ethyl N-(2-chlorobenzyl)-N-{4-[2,2,2-trifluoro-1-hydroxy-1-(trifluoromethyl)ethyl]phenyl}glycinate], for which the melting point is 146 °C.

Turning to `CCOC(=O)CN(Cc1cccnc1)c1ccc(C(O)(C(F)(F)F)C(F)(F)F)cc1` [Example 22, Ethyl N-(pyridin-3-ylmethyl)-N-{4-[2,2,2-trifluoro-1-hydroxy-1-(trifluoromethyl)ethyl]phenyl}glycinate], the melting point turned out to be 55 °C.

For `CCOC(=O)CN1CCCc2cc(C(O)(C(F)(F)F)C(F)(F)F)ccc21` [Example 31, Ethyl [6-[2,2,2-trifluoro-1-hydroxy-1-(trifluoromethyl)ethyl]-3,4-dihydroquinolin-1(2H)-yl]acetate], the melting point was 66.5 °C.

`CON(C)C(=O)CN(C)c1ccc(C(O)(C(F)(F)F)C(F)(F)F)cc1` [Example 32, N˜1˜-Methoxy-N˜1˜N˜2˜-dimethyl-N˜2˜-{4-[2,2,2-trifluoro-1-hydroxy-1-(trifluoromethyl)ethyl]phenyl}glycinamide] showed a melting point of 121 °C.

In turn, `CN(CC(=O)OCc1ccc(Cl)cc1)c1ccc(C(O)(C(F)(F)F)C(F)(F)F)cc1` [Example 35, 4-Chlorobenzyl N-methyl-N-{4-[2,2,2-trifluoro-1-hydroxy-1-(trifluoromethyl)-ethyl]phenyl}glycinate] had a melting point of 66.5 °C.

As for `CN(CC(=O)N1CCOCC1)c1ccc(C(O)(C(F)(F)F)C(F)(F)F)cc1` [Example 38], the melting point is 149 °C.

Regarding `CN(CC(=O)N1CCCC1)c1ccc(C(O)(C(F)(F)F)C(F)(F)F)cc1` [Example 39], the melting point was determined as 184 °C.

`CCOC(=O)CN(Cc1ccc(Cl)cc1Cl)c1ccc(C(O)(C(F)(F)F)C(F)(F)F)cc1` [Example 40, Ethyl N-(2,4-dichlorobenzyl)-N-{4-[2,2,2-trifluoro-1-hydroxy-1-(trifluoromethyl)ethyl]phenyl}glycinate]: the melting point amounted to 111 °C.

Compound `CCOC(=O)CN(Cc1cccc(Cl)c1)c1ccc(C(O)(C(F)(F)F)C(F)(F)F)cc1` [Example 41, Ethyl N-(3-chlorobenzyl)-N-{4-[2,2,2-trifluoro-1-hydroxy-1-(trifluoromethyl)ethyl]phenyl}glycinate] displayed a melting point of 81.5 °C.

Take `CCOC(=O)CN(Cc1ccc(OC)cc1)c1ccc(C(O)(C(F)(F)F)C(F)(F)F)cc1` [Example 43, Ethyl N-(4-methoxybenzyl)-N-{4-[2,2,2-trifluoro-1-hydroxy-1-(trifluoromethyl)ethyl]phenyl}glycinate]: the melting point came out at 68 °C.

Compound `CCOC(=O)C1(Nc2ccc(C(O)(C(F)(F)F)C(F)(F)F)cc2)CCC(C(C)(C)C)CC1` (centres unmarked) [Example 49, Ethyl 4-tert-butyl-1-({4-[2,2,2-trifluoro-1-hydroxy-1-(trifluoromethyl)ethyl]phenyl}amino)cyclohexanecarboxylate] came in with a melting point of 107 °C.

Compound `CCOC(=O)C1(Nc2ccc(C(O)(C(F)(F)F)C(F)(F)F)cc2)CCC(C)CC1` (centres unmarked) [Example 50, Ehyl 4-methyl-1-({4-[2,2,2-trifluoro-1-hydroxy-1-(trifluoromethyl)ethyl]phenyl}amino)cyclohexanecarboxylate] displayed a melting point of 142.6 °C.
